Assay results as given in PMC3296825 (Nature medicine, 2012).

Experiments:
[1] = molecular target: fast skeletal troponin complex (Oryctolagus cuniculus, UniProt P02586+P02643); assay: isothermal titration calorimetry; assay type: binding
slow skeletal troponin = slow skeletal troponin (Bos taurus, UniProt G3MYN5+P63315); assay: isothermal titration calorimetry; assay type: binding

Chain of fast skeletal troponin complex (P02586 2-160): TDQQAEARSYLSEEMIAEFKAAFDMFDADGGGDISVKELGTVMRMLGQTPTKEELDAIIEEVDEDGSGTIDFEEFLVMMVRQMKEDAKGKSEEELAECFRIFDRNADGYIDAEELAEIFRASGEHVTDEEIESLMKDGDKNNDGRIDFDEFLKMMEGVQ
Chain of fast skeletal troponin complex (P02643 2-182): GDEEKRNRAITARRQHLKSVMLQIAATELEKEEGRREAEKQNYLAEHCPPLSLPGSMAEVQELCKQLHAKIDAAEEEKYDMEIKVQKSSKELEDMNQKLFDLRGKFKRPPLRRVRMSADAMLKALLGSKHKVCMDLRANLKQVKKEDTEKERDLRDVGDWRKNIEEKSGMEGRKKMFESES
Chain of fast skeletal troponin complex (P02641 2-279 partner): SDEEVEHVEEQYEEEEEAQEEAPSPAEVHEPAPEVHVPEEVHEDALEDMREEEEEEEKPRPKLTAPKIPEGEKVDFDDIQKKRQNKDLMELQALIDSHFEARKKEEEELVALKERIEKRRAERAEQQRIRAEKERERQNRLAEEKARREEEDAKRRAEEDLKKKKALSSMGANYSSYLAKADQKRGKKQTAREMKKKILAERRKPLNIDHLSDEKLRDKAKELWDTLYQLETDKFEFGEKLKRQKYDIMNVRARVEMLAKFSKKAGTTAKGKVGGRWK

Kd [1]: 0.04 ± 0.006 µM
Kd (slow skeletal troponin): 3.8 ± 0.7 µM
Structure (SMILES): C#Cc1cnc2nc(O)n(C(CC)CC)c2n1 [CK-2017357]
